Measured values reported in patent publication US12581252B2, “Substituted pyrrolo[3,4-b]pyridines as PI3K-α inhibitors” (Relay Therapeutics, Inc., priority 2020, dated 2026).
pIC50: −log10 of the molar value.

Target: H1047R PIK3CA enzyme (Homo sapiens, UniProt P42336, H1047R)
Assay: ADP-Glo Biochemical PIK3CA Kinase Assay

Sequence of H1047R PIK3CA enzyme (P42336 whole entry H1047R): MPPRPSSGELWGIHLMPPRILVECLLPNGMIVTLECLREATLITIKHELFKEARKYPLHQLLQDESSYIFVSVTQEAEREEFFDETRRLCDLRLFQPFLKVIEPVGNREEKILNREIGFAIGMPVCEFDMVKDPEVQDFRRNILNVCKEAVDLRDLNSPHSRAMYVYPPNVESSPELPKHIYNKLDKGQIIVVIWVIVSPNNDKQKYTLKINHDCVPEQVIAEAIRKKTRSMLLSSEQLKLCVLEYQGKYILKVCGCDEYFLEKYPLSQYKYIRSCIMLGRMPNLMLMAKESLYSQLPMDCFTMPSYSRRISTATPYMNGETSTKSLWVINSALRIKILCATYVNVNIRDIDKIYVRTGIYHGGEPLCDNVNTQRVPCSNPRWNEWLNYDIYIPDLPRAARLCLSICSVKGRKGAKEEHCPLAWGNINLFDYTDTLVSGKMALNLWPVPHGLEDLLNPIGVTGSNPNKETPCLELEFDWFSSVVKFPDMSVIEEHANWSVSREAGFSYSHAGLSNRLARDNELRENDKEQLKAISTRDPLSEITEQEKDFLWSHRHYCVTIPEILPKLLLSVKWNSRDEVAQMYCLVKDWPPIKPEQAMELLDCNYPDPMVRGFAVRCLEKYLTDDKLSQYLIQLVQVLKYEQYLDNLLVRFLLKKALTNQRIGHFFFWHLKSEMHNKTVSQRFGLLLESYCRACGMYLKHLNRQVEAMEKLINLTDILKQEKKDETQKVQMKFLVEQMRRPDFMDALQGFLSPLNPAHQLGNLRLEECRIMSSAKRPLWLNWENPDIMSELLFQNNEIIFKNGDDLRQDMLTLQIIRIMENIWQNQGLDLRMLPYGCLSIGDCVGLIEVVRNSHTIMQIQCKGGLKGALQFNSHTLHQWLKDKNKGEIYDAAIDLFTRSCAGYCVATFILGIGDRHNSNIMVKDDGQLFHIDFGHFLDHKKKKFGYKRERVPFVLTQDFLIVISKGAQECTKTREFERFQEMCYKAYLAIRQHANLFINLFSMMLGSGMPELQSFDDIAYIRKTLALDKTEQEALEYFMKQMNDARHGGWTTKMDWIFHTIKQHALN
Sequence of H1047R PIK3CA enzyme (P27986 whole entry partner): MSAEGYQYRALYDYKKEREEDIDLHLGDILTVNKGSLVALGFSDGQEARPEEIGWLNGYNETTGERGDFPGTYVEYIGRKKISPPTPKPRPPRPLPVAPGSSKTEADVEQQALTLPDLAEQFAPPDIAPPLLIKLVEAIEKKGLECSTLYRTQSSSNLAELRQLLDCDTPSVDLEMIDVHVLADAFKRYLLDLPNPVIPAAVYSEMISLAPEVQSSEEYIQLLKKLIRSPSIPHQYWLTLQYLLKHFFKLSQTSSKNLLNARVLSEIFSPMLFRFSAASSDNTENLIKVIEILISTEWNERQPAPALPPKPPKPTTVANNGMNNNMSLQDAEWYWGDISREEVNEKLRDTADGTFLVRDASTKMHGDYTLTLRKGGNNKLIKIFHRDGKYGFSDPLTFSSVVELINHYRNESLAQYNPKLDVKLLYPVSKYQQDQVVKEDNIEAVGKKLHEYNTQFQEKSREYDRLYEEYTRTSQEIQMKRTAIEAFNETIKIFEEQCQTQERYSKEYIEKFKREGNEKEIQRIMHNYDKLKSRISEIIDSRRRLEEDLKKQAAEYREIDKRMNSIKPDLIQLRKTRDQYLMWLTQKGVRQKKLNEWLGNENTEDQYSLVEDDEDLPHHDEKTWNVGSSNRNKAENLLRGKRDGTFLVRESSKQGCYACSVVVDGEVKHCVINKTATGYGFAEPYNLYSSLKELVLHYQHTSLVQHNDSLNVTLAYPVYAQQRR

Compound | pIC50
CCOC(=O)Cc1cc(F)cc(C(=O)Nc2cc(CC(=O)OCC)cc3c2C(c2cc(F)ccc2Cl)NC3=O)c1 (stereo not shown) [Compound I-697] | 5.00 to 6.00
O=C(Nc1cc(NCCO)cc2c1C(c1cc(F)ccc1Cl)NC2=O)c1cc(F)cc(C(F)(F)F)c1 (stereo not shown) [Compound I-707] | ≥ 7.00
O=C(Nc1cc(Br)cc2c1C(c1cc(F)ccc1Cl)NC2=O)c1cc(F)ccc1Cl (stereo not shown) [Compound I-791] | 4.00 to 5.00
Cc1ccccc1C1NC(=O)c2c(C)ncc(NC(=O)c3cc(F)cc(C(F)(F)F)c3)c21 (stereo not shown) [Compound I-244, 3-Fluoro-N-(4-methyl-3-oxo-1-(o-tolyl)-2,3-dihydro-1H-pyrrolo[3,4-c]pyridin-7-yl)-5-(trifluoromethyl)benzamide] | 6.30 to 7.00
O=C(Nc1cc(-c2cn[nH]c2)nc2c1[C@@H](c1cc(F)ccc1Cl)NC2=O)c1cc(F)cc(C(F)(F)F)c1 [Compound I-193] | 5.00 to 6.00
Cc1ccccc1C1NC(=O)c2cc(CO)cc(NC(=O)c3cc(F)cc(C(F)(F)F)c3)c21 (stereo not shown) [Compound I-473] | ≥ 7.00
O=C1NC(c2cc(F)ccc2Cl)c2c(NC(=O)C34CC5CC(CC(Cl)(C5)C3)C4)cc(Br)cc21 (stereo not shown) [Compound I-1179] | ≥ 7.00
O=C(Nc1cc(Br)cc2c1C(c1cc(F)ccc1Cl)NC2=O)c1cc(Cl)cc(F)c1Cl (stereo not shown) [Compound I-694] | 5.00 to 6.00
O=C1NC(c2cc(F)ccc2Cl)c2c(NC(=O)c3csc4ccccc34)cc(Br)cc21 (stereo not shown) [Compound I-626] | ≥ 7.00
CS(=O)(=O)Cc1cc(NC(=O)c2cc(F)cc(C(F)(F)F)c2)c2c(c1)C(=O)NC2c1cc(F)ccc1Cl (stereo not shown) [Compound I-310] | ≥ 7.00
O=C1Cc2c(cccc2-c2cc(NC(=O)c3cc(F)cc(C(F)(F)F)c3)c3c(c2)C(=O)NC3c2cc(F)ccc2Cl)N1 (stereo not shown) [Compound I-1034] | ≥ 7.00
Cn1ncnc1COc1cc(NC(=O)c2cc(F)cc(C(F)(F)F)c2)c2c(c1)C(=O)NC2c1cc(F)ccc1Cl (stereo not shown) [Compound I-1221] | ≥ 7.00
O=C(Nc1cc(-c2ccc3ncnn3c2)cc2c1[C@H](c1cc(F)ccc1Cl)NC2=O)c1cc(F)cc(C(F)F)c1 (stereo in doubt) [Compound I-1171] | 6.30 to 7.00
CNc1cc(C2NC(=O)c3cccc(NC(=O)c4cc(F)cc(C(F)(F)F)c4)c32)ccn1 (stereo not shown) [Compound I-874] | 4.00 to 5.00

Further lines, results first:

pIC50 | Compound
4.00 to 5.00 | O=C(Nc1cccc2c1C(CC1CC=CC1)NC2=O)c1cc(F)cc(C(F)(F)F)c1 (stereo not shown) [Compound I-2322]
4.00 to 5.00 | O=C1N[C@@H](c2cc(F)ccc2Cl)c2c(NC(=O)[C@H]3CCCCN3)cc(-c3ccc4ncnn4c3)cc21 [Compound I-2147]
≥ 7.00 | [2H]C([2H])(c1cc(NC(=O)c2cc(F)cc(C(F)(F)F)c2)c2c(c1)C(=O)N[C@H]2c1cc(F)ccc1Cl)S(C)(=O)=O (single isomer, unassigned) [Compound I-1789]
≥ 7.00 | CN(C)S(=O)(=O)Cc1cc(NC(=O)c2cc(F)cc(C(F)(F)F)c2)c2c(c1)C(=O)NC2c1cc(F)ccc1Cl (stereo not shown) [Compound I-1275]
4.00 to 5.00 | O=C(CC1CC1)Nc1cc(-c2ccc3ncnn3c2)cc2c1C(c1cc(F)ccc1Cl)NC2=O (stereo not shown) [Compound I-1781]
4.00 to 5.00 | O=C1NC(c2cc(F)ccc2Cl)c2c(NC(=O)[C@H]3C[C@H](O)c4ccccc43)cc(Br)cc21 (mixture of isomers) [Compound I-1943]
4.00 to 5.00 | Cc1ccccc1C1NCCc2c(Br)ccc(NC(=O)c3cc(F)cc(C(F)(F)F)c3)c21 (stereo not shown) [Compound I-1963]
4.00 to 5.00 | O=C1NC(c2cc(F)ccc2Cl)c2c1cccc2-n1cnc2ccccc2c1=O (stereo not shown) [Compound I-1516]
5.00 to 6.00 | NCc1cc(NC(=O)N2C[C@@](O)(C(F)F)c3cc(F)ccc32)c2c(c1)C(=O)N[C@H]2c1cc(F)ccc1Cl (single isomer, unassigned) [Compound I-2696]
6.00 to 6.30 | O=C1NC(c2cc(F)ccc2Cl)c2c(NC(=O)N3CCCC34CCC4)cc(Br)cc21 (stereo not shown) [Compound I-2377]
≥ 7.00 | CC(c1cc(NC(=O)c2cc(F)cc(C(F)(F)F)c2)c2c(c1)C(=O)NC2c1cc(F)ccc1Cl)S(C)(=O)=O (stereo not shown) [Compound I-1292]
